Earlier results, collected in patent publication US12251380B2, “Depot systems comprising cariprazine or salts thereof” (Mapi Pharma Ltd., priority 2022, dated 2025).
Read-outs that look alike come from different tables or passages of the source.

Conditions: schizophrenic patients

elimination half-life (oral Cariprazine) [days] | elimination half-life (active metabolite after oral Cariprazine) | SMILES
2 to 5 | – | CN(C)C(=O)N[C@H]1CC[C@H](CCN2CCN(c3cccc(Cl)c3Cl)CC2)CC1 [Cariprazine, trans-N-{4-[2-[4-(2,3-dichlorophenyl)piperazine-1-yl]ethyl]cyclohexyl}-N′,N′-dimethylurea]
– | 2-3 weeks | NC(=O)NC1CCC(CCN2CCN(c3cccc(Cl)c3Cl)CC2)CC1 (centres unmarked) [didesmethyl Cariprazine]
